The record followed here is patent US20230340440A1, “GENETIC MANIPULATION METHOD IN BACTERIA” (University of Washington, priority 2022, published 2023).

Holding throughout (type): cell-based, P. putida
One data set has as its system J3 promoter. The experiment in a line: CRISPRa reporter gene activation, J3-BBa_J23117-mRFP. The settings on record: for activation of mRFP: FIG. 4. As for the experimental part:
Fluorescence measurements of reporter gene expression were carried out either by flow cytometry or plate reader. Single colonies from LB plates were inoculated in 500 µL of EZ-RDM (Teknova) supplemented with the appropriate antibiotics and grown in 96-deep-well plates at 30° C. with shaking overnight 225 rpm. For small-molecule induction, overnight cultures were diluted 100-fold into a new culture with appropriate antibiotics and inducers, then shaken overnight at 30° C., 225 rpm. For flow cytometry, overnight cultures were diluted 1:50 in Dulbecco’s phosphate-buffered saline (PBS) and analyzed on a MACSQuant VYB flow cytometer with the MACSQuantify 2.8 software (Miltenyi Biotec) using the methods and instruments settings as described (Dong et al., 2018. Synthetic CRISPR-Cas gene activators for transcriptional reprogramming in bacteria. Nat Commun 9, 2489). For plate reader measurements, 150 µL of overnight culture were transferred into a flat, clear-bottomed black 96-well plate. OD600 and fluorescence values were measured in a Biotek Synergy HTX plate reader and analyzed using the BioTek Gen5 2.07.17 software. For mRFP1 detection, the excitation wavelength was 540 nm and emission wavelength was 600 nm. For sfGFP detection, the excitation wavelength was 485 nm and the emission wavelength was 528 nm. Data were plotted using Prism (GraphPad).
Next, the 20 bp target sequence that is recognized by the scRNA was examined. The experiments described above were performed with the J1 promoter, which contains an array of 20 base target sites. An alternative promoter, termed J3, that has a different set of 20 base target sites was tested. […] Compared to the J1 promoter, where a 4-fold activation (J106 target site) was observed, the fold-activation with the J3 promoter increased to 34-fold (J306 target site) (FIG. 2D). For both J1 and J3, the CRISPRa-induced expression levels were similar. The large difference in fold-activation results from an unexpected difference in basal expression levels. The basal expression of J3-mRFP is 11-fold lower than that of J1-mRFP, which leads to much higher fold-activation. […]
With optimized expression levels and a delivery strategy for the CRISPRa system in P. putida in place, whether CRISPRa and CRISPRi can be used together to activate and repress multiple genes was tested. […] A dual scRNA/sgRNA cassette was inserted in this plasmid with a J306 scRNA for mRFP activation and an sgRNA that targets within the sfGFP open reading frame (ORF) for repression. […]
A general note: Reporter assays use an easily measured gene product as a stand-in for the process of interest.

Another data set has as its system J3-GTPCH, J3-PTPS, J3-SR. The experiment in a line: biopterin pathway activation by CRISPRa, HPLC-MS. As to conditions: J3-SR (pBBR1-GmR), relative to off-target scRNA, FIG. 6D.
The next data set relates to J3-BBa_J23117-mvaES. The experiment in a line: mevalonate pathway activation by CRISPRa, GC-MS. As to conditions: 13-mvaES (pBBR1-GmR); relative to off-target scRNA; FIG. 7B. As for the experimental part: For mevalonate production experiments, the GC-MS method was adapted from prior methods (Pfleger et al., 2007. Microbial sensors for small molecules: Development of a mevalonate biosensor. Metab. Eng. 9, 30-38). Single colonies from LB plates were inoculated in 500 µL of EZ-RDM (Teknova) supplemented with the appropriate antibiotics and grown in 96-deep-well plates at 30° C. with shaking overnight at 225 rpm. Overnight cultures were subcultured by 1:100 dilution into 3 mL of EZ-RDM media with 1% glucose as the carbon source, supplemented with the appropriate antibiotics, and shaken at 225 rpm for 72 hours at 30° C. After 72 hours, 560 µL of cell suspension was acidified with 140 µL of 0.5 M HCl and vortexed. 700 µL ethyl acetate was added and samples were then vortexed again vigorously for 3 minutes and centrifuged at maximum speed in a benchtop centrifuge (15,000 rcf) for 10 min. […] The temperature cycle started at 80° C. and was followed by a gradient of 20° C./min to 260° C., a second gradient of 40° C./min to 300° C., and a hold at 300° C. for 2 min. m/z = 71, the second most abundant peak corresponding to mevalonolactone, was used for quantitation (Pfleger et al., 2007. Microbial sensors for small molecules: Development of a mevalonate biosensor. Metab. Eng. 9, 30-38). […] The calculated concentration was adjusted by the addition of HCl. […]

Take “J306: scRNA, SEQ ID NO: 95, target TTGTGTCCAGAACGCTCCGT, J3 and J1(306) promoters, template strand, 81 to TSS (chemistry not given here)”: the Fold-change is given as 3-fold in the data set on J3 promoter (J3-mRFP (integrated), dual reporters genomically-integrated, FIG. 15A) and 41-fold with J3 promoter (J3-mRFP (pBBR1-GmR), dual mRFP/sfGFP reporter plasmid-bourne, FIG. 13). Further, the “activation of mRFP” value with J3 promoter (just a single scRNA delivered, weak mRFP/strong sfGFP dual-reporter plasmid) worked out at 15 fold; in the data set on J3 promoter (simultaneous CRISPRa/CRISPRi, dual-reporter plasmid with sfGFP-repressing sgRNA) it was 6.6 fold. Also, the “Fold-change, metabolite production” value with J3-GTPCH, J3-PTPS, J3-SR was 5-fold; with J3-BBa_J23117-mvaES, >40-fold.
